Consider nine compounds from publication PMC6471066, “Spiralyde A, an Antikinetoplastid Dolabellane from the Brown Alga Dictyota spiralis” (Marine Drugs, 2019).

Molecules are shown by their SMILES.

A short description of series [1]: Cytotoxicity assay (Alamar Blue). It counts as cell-based. The settings on record: mouse, J774.A1 macrophage cell line (ATCC TIB-67), murine macrophage J774.A1. On the procedure: The activity of the crude extract, different subfractions and isolated compounds were evaluated against promastigotes of Leishmania amazonensis (MHOM/BR/77/LTB0016) and epimastigotes Trypanosoma cruzi (Y strain). Cytotoxicity assay of the active compounds was tested against the murine macrophage J774.A1 cell line (ATCC # TIB-67). […]
For orientation: Resazurin is reduced to fluorescent resorufin, in cell work by metabolically active cells.

Series [2] concerns epimastigotes Trypanosoma cruzi (Y strain). The series can be described thus: Trypanocidal capacity assay (Alamar Blue). It counts as cell-based. The settings on record: epimastigote form; for IC50: 96 h. The procedure: (§1) Bioassay-guided fractionation of the crude extract yielded six dolabellanes 1–6. Their in vitro antiprotozoal activity was evaluated applying serial dilutions of the compounds, and IC50 were calculated using the Alamar Blue reagent reaction.
(§2) The activity of the crude extract, different subfractions and isolated compounds were evaluated against promastigotes of Leishmania amazonensis (MHOM/BR/77/LTB0016) and epimastigotes Trypanosoma cruzi (Y strain). Cytotoxicity assay of the active compounds was tested against the murine macrophage J774.A1 cell line (ATCC # TIB-67).
The activity was evaluated in vitro against epimastigote stage of Trypanosoma cruzi. Different concentrations of fractions and compounds were incubated in 96 wells plate for 96 h with a density of 10^5 parasite/well. 10% of Alamar blue was added to each well and the IC50 was calculated. All assays have been realized in triplicate.

For series [3], the system named is promastigotes of Leishmania amazonensis (MHOM/BR/77/LTB0016). Description: Leishmanicidal capacity assay (Alamar Blue). It is filed as cell-based. Particulars: promastigote form; for IC50: Leishmania amazonensis. On the procedure:
as §1, §2
Logarithmic phase cultures of Leishmania amazonensis were used for experimental purposes, and the in vitro susceptibility assay was performed in sterilized 96-well plates. 10^6/well parasites were added to wells containing different concentration of the drug to be tested. Percentages of inhibition, 50% inhibitory concentrations (IC50) for active compounds were calculated by linear regression analysis using the Alamar Blue method.

The subject of series [4] is promastigote form of L. amazonensis. Also noted: method as in PMID 22970332. Particulars: promastigotes; cited from earlier work.

By CC50 is commonly meant the concentration giving 50% cytotoxicity. A high value points to better tolerance by the cells. A word on the IC50: it is the point on the concentration scale where inhibition reaches its midpoint. For `C=C(C)[C@H]1CC[C@]2(C)C[C@@H]3O[C@@]3(C)CC/C=C(\C)CC[C@@H]12` [compound 2, (1R,3S,4S,7E,11S,12S)-3,4-Epoxy-7,18-dolabelladiene], in series [1], the midpoint of cytotoxicity, the CC50 at 24 h, lay at 69.98 ± 0.14 µM. Besides, the IC50 in series [2] (Trypanosoma cruzi) turned out to be 35.3 ± 4.09 µM. For the same compound, the “antikinetoplastid activity against Trypanosoma cruzi (in words)” value in series [2] is “moderate activity”. Also, in series [3], the IC50 was 36.8 ± 5.2 µM and the “antikinetoplastid activity against Leishmania amazonensis (in words)” value is on record as “moderate activity”.

In series [2] (Trypanosoma cruzi), `C=C(C)[C@H]1C[C@H](O)[C@]2(C)C[C@@H]3O[C@@]3(C)CC/C=C(\C)CC[C@@H]12` [compound 3, (1R,3S,4S,7E,11S,12S,14S)-3,4-Epoxy-14-hydroxy-7,18-dolabelladiene] had an IC50 greater than 100 µM. Also, the “antikinetoplastid activity against Trypanosoma cruzi (in words)” value in series [2] is “inactive”. For the same compound, in series [3], the IC50 was greater than 100 µM and the “antikinetoplastid activity against Leishmania amazonensis (in words)” value is “inactive”.

With `CCCCCCCCCCCCCCCCOP(=O)([O-])OCC[N+](C)(C)C` [Miltefosine, reference compound], half-maximal cytotoxicity in series [1] (CC50 at 24 h) was put at 72.2 ± 3.06 µM.

In turn, `O=C(Cn1ccnc1[N+](=O)[O-])NCc1ccccc1` [Benznidazole, reference compound] came in with a 50% cytotoxic concentration (CC50) at 24 h in series [1] of 400 ± 4 µM. The IC50 is 6.95 µM in series [2] (Trypanosoma cruzi) and 6.94 ± 1.94 µM in series [2].

In turn, `C=C(C)[C@H]1CC(=O)[C@]2(C)C[C@@H]3O[C@@]3(C)CC/C=C(\C)CC[C@@H]12` [compound 4, (1R,3S,4S,7E,11S,12S)-3,4-Epoxy-14-oxo-7,18-dolabelladiene] came in with an IC50 in series [2] (Trypanosoma cruzi) greater than 100 µM. In addition, in series [2], the “antikinetoplastid activity against Trypanosoma cruzi (in words)” value was “inactive”. Also, in series [3], the IC50 was greater than 100 µM and the “antikinetoplastid activity against Leishmania amazonensis (in words)” value was “inactive”.

In the case of `C[C@H]1/C=C/[C@@]2(C)CC[C@@H](C(C)(C)O)[C@@H]2[C@@H](O)C[C@](C)(O)/C=C/C1` [dolabelladienetriol (9), dolabelladienetriol], the IC50 in series [4] was 44 µM.

`C=C(C)[C@H]1CC(=O)[C@]2(C)C/C=C(\C)CC/C=C(\C)CC[C@@H]12` [compound 5, (1R,3E,7E,11S,12S)-14-Oxo-3,7,18-dolabellatriene]: the concentration for half-maximal inhibition (IC50) in series [2] (Trypanosoma cruzi) and in series [3] was greater than 100 µM in each case.

Consider `C=C(C)C1CC(=O)C2(C)CC=C(C)CCC=C(C)CCC12` [compound 6, (1R,3Z,7E,11S,12S)-14-Oxo-3,7,18-dolabellatriene], for which the IC50 in series [2] (Trypanosoma cruzi) and in series [3] was greater than 100 µM throughout.

Compound `C=C(C)C1CCC2(C)CC=C(C)CCC=C(C=O)C(O)CC12` (stereo not shown) [Spiralyde A (1), Spiralyde A] gave a cytotoxic concentration (CC50) at 24 h in series [1] of 23.4 ± 5.62 µM. Also, the IC50 in series [2] (Trypanosoma cruzi) worked out at 5.62 ± 2.48 µM; in series [3] it was 15.5 ± 0.26 µM.
